According to paper PMC11079064, “Discovery of a brain penetrant small molecule antagonist targeting LPA1 receptors to reduce neuroinflammation and promote remyelination in multiple sclerosis” (Scientific Reports, 2024):
“Also recorded” adds a separate entry of the source.

What was measured:
microglia = assay: LPA-induced microglial activation in hippocampal slices; assay type: cell-based, mouse; conditions: AM152, 10 µM LPA
Experimental: Microglial activation was then triggered by the addition of 10 µM LPA, slices incubated for 3 additional hours, then fixed. Slices were immunostained against IBA1 and microglial perimeters were measured as a mean of differentiating between ramified/resting versus rounded/activated microglia.
Brains were harvested from mice (postnatal day 20, Charles River). […] 400 µm thick coronal slices were cut on a McIlwain tissue chopper and returned to dissection media and separated manually. […] Slices were incubated for 2 h at 37 °C (4 slices per condition). Microglial activation was initiated by adding LPA (18:1, Avanti Polar Lipids) to a final concentration of 10 µM and incubated for 3 h. Slices were then fixed in formalin and for 2 h.
For immunohistochemistry, slices were washed for 3 × 15 min in 0.5% Triton-X100 and DPBS. Slices were then stained using IBA-1 antibody (Thermo Scientific) in 10% normal goat serum with 0.5% Triton-X100 in DPBS overnight on a rocker. Slices were then washed in 0.5% Triton-X100 in DPBS 3 × 15 min. Goat anti-mouse Alexa 564 (1:500, Invitrogen, Carlsbad, CA) and […] (Invitrogen, Carlsbad, CA) were diluted in DPBS with 0.5% Triton-X100 and incubated for 2h. Slices were washed 3 × 15 min in DPBS with 0.5% Triton-X100, mounted with Fluoromount and imaged on a Nikon A1R confocal microscope.

[1] = design: method as in PMID 34969771, PMID 30201408; conditions: cited from earlier work
[2] = tested on: ROCK (Rho-associated kinase); design: method as in PMID 25289646; conditions: cited from earlier work
autotaxin = biological target: T1, autotaxin (Rattus norvegicus, UniProt Q64610); assay: LPA species in macrophage-conditioned media; assay type: cell-based; conditions: 1 µM, 48 h
T1 construct: Male Sprague Dawley rat macrophages were isolated from intraperitoneal lavage fluid; endogenous in cells; host or cells: primary rat peritoneal macrophages
Experimental: Autotaxin (ATX), an enzyme responsible for LPA synthesis, is elevated in CSF samples from multiple sclerosis patients and may be an underlying source of elevated LPA levels in the CNS during disease. […] To confirm the release of LPA from these macrophages, macrophage-conditioned media was taken 30 min or 48 h after plating and various LPA species were measured by mass spectrometry.
Rat macrophages were cultured as described above. Media from wells at 30 m or 48 h post-plating were taken. Media from macrophages treated with 1 µM PF-8380 (autotaxin inhibitor, Sigma, St Louis, MO) for 48 h was also collected. For LPA determination, 20 µl of culture media was aliquoted into glass 12 × 75 mm culture test tubes. 500 µl of 30 mM citric acid/40 mM disodium phosphate buffer (pH 4.0) with 1 ng/ml 17:0 LPA as an internal standard (IS) were also added to the test tubes. 2 ml of 1-butanol were then added to the test tubes, tubes covered with parafilm, vortexed for 10 s, and centrifuged for 10 min at 1000g at 4 °C. After centrifugation, the top layers were transferred to clean test tubes. The bottom layers were extracted again with 1 ml of water-saturated butanol. The test tubes were covered with parafilm, vortexed for 10 s, and centrifuged for 10 min at 1000g at 4 °C. […] After reconstitution, the samples were analyzed by LC–MS/MS using an AB Sciex 6500 + . […]

Q: What does the source list for `Cc1noc(-c2ccc(-c3ccc(C4(C(=O)O)CC4)cc3)cc2)c1NC(=O)O[C@H](C)c1ccccc1` [AM152, reference compound]?
A: effect on LPA-induced decrease in microglial perimeter length (microglia): inhibits microglial activation; also recorded: inhibited; Phase 1 tolerability [1]: demonstrated Phase 1 tolerability

Q: With `O=S(=O)(c1cccc2cnccc12)N1CCCNCC1` [fasudil] as the compound, how does the “effect on OPC differentiation” value [2] read?
A: leads to OPC differentiation

Q: For `CCCN(C)C(=O)OCc1c(-c2ccc(O[C@H]3CCC[C@H](C(=O)O)C3)c(C)n2)nnn1C` [BMS-986278], which “Phase 1 tolerability” value [1] is on record?
A: demonstrated Phase 1 tolerability

Q: For `O=C(CCN1CCN(C(=O)OCc2cc(Cl)cc(Cl)c2)CC1)c1ccc2[nH]c(=O)oc2c1` [PF-8380], which “effect on increase of LPA species in macrophage-conditioned media” value (autotaxin) is on record?
A: prevents the induction of several LPA species; also recorded: inhibited
